Several values for one entry are separate records, joined by “and”; a condition that tells them apart may be missing. Identical values can stand only once. Like-named read-outs stand apart in the source and are kept apart here.
B2: Twinstrep-AtGPA1 (natural protein, Arabidopsis, UniProt P18064 1-383, looked up)
chain: MGLLCSRSRHHTEDTDENTQAAEIERRIEQEAKAEKHIRKLLLLGAGESGKSTIFKQIKLLFQTGFDEGELKSYVPVIHANVYQTIKLLHDGTKEFAQNETDSAKYMLSSESIAIGEKLSEIGGRLDYPRLTKDIAEGIETLWKDPAIQETCARGNELQVPDCTKYLMENLKRLSDINYIPTKEDVLYARVRTTGVVEIQFSPVGENKKSGEVYRLFDVGGQRNERRKWIHLFEGVTAVIFCAAISEYDQTLFEDEQKNRMMETKELFDWVLKQPCFEKTSFMLFLNKFDIFEKKVLDVPLNVCEWFRDYQPVSSGKQEIEHAYEFVKKKFEELYYQNTAPDRVDRVFKIYRTTALDQKLVKKTFKLVDETLRRRNLLEAGLL
B3: XLG2 C terminal Gα domain (residues from 435 to 861) (domain or fragment, Arabidopsis, UniProt C6KIE6 435-861, looked up)
chain: CAVFSLPVPPASSAVEPYDVPLYEQKMLNKLLLIGSEKGGATTIYKQARSLYNVSFSLEDRERIKFIIQTNLYTYLAMVLEAHERFEKEMSNDQSSGNVGDETSAKPGNSINPRLKHFSDWVLKEKEDGNLKIFPPSSRENAQTVADLWRVPAIQATYKRLRDTLPRNAVYFLERILEISRSEYDPSDMDILQAEGLSSMEGLSCVDFSFPSTSQEESLESDYQHDTDMKYQLIRLNPRSLGENWKLLEMFEDADLVIFCVSLTDYAENIEDGEGNIVNKMLATKQLFENMVTHPSLANKRFLLVLTKFDLLEEKIEEVPLRTCEWFEDFNPLISQNQTSRHNPPMAQRAFHYIGYKFKRLYDSILEPVNMRGRSFKPKLFVCQVSLESDTVDNALRYAREILKWHVEETSMFQEMSTTSIEASSSS

Experiments:
AtGPA1 [1] = target: T1, AtGPA1 (Arabidopsis thaliana, UniProt P18064); assay: Microscale thermophoresis; format: binding
T1 sequence (P18064 1-383): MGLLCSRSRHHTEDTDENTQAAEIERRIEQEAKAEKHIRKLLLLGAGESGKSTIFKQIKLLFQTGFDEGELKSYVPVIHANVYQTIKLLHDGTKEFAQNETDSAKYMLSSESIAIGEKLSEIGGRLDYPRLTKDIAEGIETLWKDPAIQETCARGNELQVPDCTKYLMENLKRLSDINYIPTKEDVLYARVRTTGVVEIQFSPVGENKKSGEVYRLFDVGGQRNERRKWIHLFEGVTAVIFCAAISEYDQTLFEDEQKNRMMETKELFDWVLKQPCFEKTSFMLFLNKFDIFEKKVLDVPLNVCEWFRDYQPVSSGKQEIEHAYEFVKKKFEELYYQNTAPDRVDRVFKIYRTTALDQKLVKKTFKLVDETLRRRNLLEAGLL

XLG2 = target: T2, XLG2 (Arabidopsis thaliana, UniProt C6KIE6); assay: Microscale thermophoresis; format: binding
T2 sequence (C6KIE6 435-861): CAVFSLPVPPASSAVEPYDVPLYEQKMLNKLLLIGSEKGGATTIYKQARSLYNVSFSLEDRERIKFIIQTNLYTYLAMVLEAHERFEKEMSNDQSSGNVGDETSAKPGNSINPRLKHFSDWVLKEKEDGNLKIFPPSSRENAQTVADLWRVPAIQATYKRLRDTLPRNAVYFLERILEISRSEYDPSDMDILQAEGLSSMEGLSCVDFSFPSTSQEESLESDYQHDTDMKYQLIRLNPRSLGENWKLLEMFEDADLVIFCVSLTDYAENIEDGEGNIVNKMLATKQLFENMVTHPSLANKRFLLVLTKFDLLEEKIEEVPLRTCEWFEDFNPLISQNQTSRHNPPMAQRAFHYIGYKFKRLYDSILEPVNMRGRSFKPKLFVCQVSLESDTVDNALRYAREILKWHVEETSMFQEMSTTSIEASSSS

AtGPA1 [2] = target: T1, AtGPA1; settings: read-out: Kd for GTPγS binding to AtGPA1 using a radioactive ligand, ref Johnston, Willard, Kimple, Siderovski, 2008; cited from earlier work
animal G subunits = settings: read-out: range of Kds reported for animal G subunits; ref Malinski, Zera, Angleson, & Wensel, 1996; cited from earlier work
Twinstrep-AtGPA1 [3] = target: B2; assay: MST
[4] = target: B3; assay: MST
Twinstrep-AtGPA1 [5] = target: B2; assay: MST; remark: listed apart in the source
[6] = target: T3, Arabidopsis Gβγ dimer (AGB1/AGG1) (Arabidopsis, UniProt P49177 1-377; Q9FDX9 1-98); assay: MST
T3 sequence (looked up) 1: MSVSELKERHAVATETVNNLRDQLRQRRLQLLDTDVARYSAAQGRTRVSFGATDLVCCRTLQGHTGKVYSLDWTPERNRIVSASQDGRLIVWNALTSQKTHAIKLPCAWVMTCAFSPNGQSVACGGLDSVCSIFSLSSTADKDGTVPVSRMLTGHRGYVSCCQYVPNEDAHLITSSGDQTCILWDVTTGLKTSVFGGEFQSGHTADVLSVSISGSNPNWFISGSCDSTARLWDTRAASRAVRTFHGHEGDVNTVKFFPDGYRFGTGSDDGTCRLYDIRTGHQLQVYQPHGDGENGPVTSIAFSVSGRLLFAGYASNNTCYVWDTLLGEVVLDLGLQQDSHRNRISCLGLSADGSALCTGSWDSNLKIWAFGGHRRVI
T3 sequence (looked up) 2: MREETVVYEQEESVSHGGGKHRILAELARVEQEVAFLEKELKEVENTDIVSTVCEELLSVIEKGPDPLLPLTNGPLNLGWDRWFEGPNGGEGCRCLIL

[7] = Kd, nucleotide binding to AtGPA1, MST, 25°C, polyHis-tagged AtGPA1
[8] = Kd, nucleotide binding to XLG2, MST, 25°C, in the presence of Mg2+
[9] = Kd, nucleotide binding to XLG2 in the presence of Ca2+, MST, Ca2+ instead of Mg2+

Nc1nc2c(ncn2[C@@H]2O[C@H](COP(=O)(O)OP(=O)(O)O)[C@@H](O)[C@H]2O)c(=O)[nH]1 [GDP, guanosine diphosphate]
Kd (AtGPA1 [1]; [7]): 28000 ± 12000 nM
affinity of XLG2 lower than of AtGPA1 (XLG2; Kd XLG2 vs AtGPA1): ~ 6 fold
Kd (XLG2; [8]): 177000 ± 33000 nM
Kd (XLG2; [9]): ~28000 nM

Nc1nc2c(ncn2[C@@H]2O[C@H](COP(=O)(O)OP(=O)(O)OP(O)(O)=S)[C@@H](O)[C@H]2O)c(=O)[nH]1 [GTPγS]
Kd (AtGPA1 [2]): ~2 nM
Kd (AtGPA1 [1]; [7]): ~21 nM and 21 nM
affinity of XLG2 lower than that of AtGPA1 / canonical Gα subunits (XLG2; Kd XLG2 vs AtGPA1, same conditions): 100 times
Kd (XLG2; Kd, nucleotide binding to XLG2, MST, 25°C, Mg2+): 2350 ± 460 nM
Kd (XLG2; [8]): ~2000 nM
Kd (XLG2; [9]): ~186000 nM
Kd (animal G subunits): 10 to 100 nM

B1: RGS+Ct (AtRGS1, residues from 284 to 459) (domain or fragment, Arabidopsis, UniProt Q8H1F2 284-459, looked up)
chain: KEEFRPVDPNEPLDKLLLNKRFRHSFMEFADSCYAGETLHFFEEVYEHGKIPEDDSIRRIYMARHIMEKFIVAGAEMELNLSHKTRQEILTTQDLTHTDLFKNALNEVMQLIKMNLVRDYWSSIYFIKFKEEESCHEAMHKEGYSFSSPRLSSVQGSDDPFYQEHMSKSSRCSSPG
Kd (Twinstrep-AtGPA1 [3]): 67 nM
Kd [4]: 198 nM
Kd (Twinstrep-AtGPA1 [5]): 125 nM

B2
Kd [6]: 2000 nM

B3
Kd [6]: 700 nM

B4: RGS1-C domain: recombinant C-terminal RGS domain of Arabidopsis AtRGS1, residues from 284 to 459 (protein)
chain: KEEFRPVDPNEPLDKLLLNKRFRHSFMEFADSCYAGETLHFFEEVYEHGKIPEDDSIRRIYMARHIMEKFIVAGAEMELNLSHKTRQEILTTQDLTHTDLFKNALNEVMQLIKMNLVRDYWSSIYFIKFKEEESCHEAMHKEGYSFSSPRLSSVQGSDDPFYQEHMSKSSRCSSPG
modifications: left off: His, end not stated, cleaved | GST, end not stated, cleaved
affinity of XLG2 for RGS domain lower than AtGPA1 in its transition state (XLG2; XLG2 vs AtGPA1 in transition state): about 2 times

B5: Gβγ: Arabidopsis Gβγ dimer (AGB1/AGG1), His tagged, expressed in Sf9 cells (protein)
chain 1: MSVSELKERHAVATETVNNLRDQLRQRRLQLLDTDVARYSAAQGRTRVSFGATDLVCCRTLQGHTGKVYSLDWTPERNRIVSASQDGRLIVWNALTSQKTHAIKLPCAWVMTCAFSPNGQSVACGGLDSVCSIFSLSSTADKDGTVPVSRMLTGHRGYVSCCQYVPNEDAHLITSSGDQTCILWDVTTGLKTSVFGGEFQSGHTADVLSVSISGSNPNWFISGSCDSTARLWDTRAASRAVRTFHGHEGDVNTVKFFPDGYRFGTGSDDGTCRLYDIRTGHQLQVYQPHGDGENGPVTSIAFSVSGRLLFAGYASNNTCYVWDTLLGEVVLDLGLQQDSHRNRISCLGLSADGSALCTGSWDSNLKIWAFGGHRRVI
chain 2: MREETVVYEQEESVSHGGGKHRILAELARVEQEVAFLEKELKEVENTDIVSTVCEELLSVIEKGPDPLLPLTNGPLNLGWDRWFEGPNGGEGCRCLIL
modifications: left off: His6, N-terminal, state not stated | His6, end not stated, state not stated
Kd (AtGPA1 [1]; read-out: Kd, Gβγ binding to AtGPA1, Gα in GDP state, MST, Gα in GDP state): ~2000 nM and 2000 nM
Kd (XLG2; read-out: Kd, Gβγ binding to XLG2 Gα domain, MST, column head: Gα in GDP state): ~700 nM and 700 nM
